Among the data in PubChem BioAssay (NCI) are TGI values, retold here.

Some test systems named below: COLO 205 colon; HOP-62 NSCLC; BT-549 breast; IGROV1 ovarian; EKVX NSCLC; HCT-116 colon; A549 NSCLC; SK-MEL-28 melanoma; OVCAR-4 ovarian; CAKI-1 renal.
Test in all cases: NCI-60 cell line screen, 48 h

Each structure is given as a SMILES string.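 Briefly, cells in 96-well plates were exposed to five compound concentrations for 48 h, and endpoints were estimated by linear interpolation. TGI marks complete inhibition of growth.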

In the case of `CC1(C)C(=O)C(C)(C)C12SSC1(S2)C(C)(C)C(=O)C1(C)C`, the TGI with COLO 205 colon, in the assay with HOP-62 NSCLC, in the assay on BT-549 breast, in the assay with IGROV1 ovarian, in the assay on EKVX NSCLC and in the assay on HCT-116 colon was over 100 µM throughout. In addition, the TGI in the assay on A549 NSCLC, in the assay with SK-MEL-28 melanoma, with OVCAR-4 ovarian and in the assay with CAKI-1 renal was over 100 µM each time.

As for `O=C1/C(=C\c2cccc(Oc3ccccc3)c2)S(=O)(=O)C(c2ccccc2)N1c1ccc(Cl)cc1` (stereo not given), the TGI in the assay on COLO 205 colon is 28.2 µM; with HOP-62 NSCLC, over 100 µM; with BT-549 breast it was 49.9 µM; in the assay on IGROV1 ovarian, 33.2 µM; in the assay with EKVX NSCLC, 84.5 µM; with HCT-116 colon, 26.8 µM. For the same molecule, the TGI was over 100 µM in the assay on A549 NSCLC, 34 µM in the assay on SK-MEL-28 melanoma, 52.3 µM in the assay on OVCAR-4 ovarian and 84.2 µM in the assay with CAKI-1 renal.

`O=P(Oc1ccccc1)(Oc1ccccc1)Oc1c[nH]c2ccccc12`: the TGI with COLO 205 colon was found to be 13.9 µM; with HOP-62 NSCLC it was 36.3 µM; in the assay with BT-549 breast, 34.4 µM; in the assay with IGROV1 ovarian it was 20.7 µM; in the assay with EKVX NSCLC, 0.907 µM; in the assay on HCT-116 colon it was 38.8 µM. The TGI is 31 µM in the assay with A549 NSCLC, 26.6 µM in the assay on SK-MEL-28 melanoma, 14.5 µM with OVCAR-4 ovarian and 23.4 µM in the assay with CAKI-1 renal.

As to `CC(=O)C(=[N+]=[N-])C(=O)OC(C)(C)C#N`, the TGI in the assay on COLO 205 colon, with HOP-62 NSCLC, in the assay with BT-549 breast, in the assay with IGROV1 ovarian, in the assay on EKVX NSCLC and in the assay with HCT-116 colon was over 10 µM throughout. The TGI in the assay on A549 NSCLC, with SK-MEL-28 melanoma, in the assay with OVCAR-4 ovarian and in the assay on CAKI-1 renal was over 10 µM in each case.

As to `N#CCCN(CCC#N)c1ccc(C(N=Nc2ccccc2)=Nc2ccccc2)cc1`, the TGI with COLO 205 colon, in the assay on HOP-62 NSCLC, in the assay on BT-549 breast, in the assay on IGROV1 ovarian, with EKVX NSCLC and in the assay with HCT-116 colon was over 100 µM throughout. Moreover, the TGI in the assay on A549 NSCLC, in the assay on SK-MEL-28 melanoma, in the assay on OVCAR-4 ovarian and with CAKI-1 renal was over 100 µM each time.

As for `Clc1ccc(Oc2ccc(N=Cc3ccc(Cl)cc3Cl)cc2Cl)cc1`, the TGI in the assay on COLO 205 colon is over 100 µM; with HOP-62 NSCLC, over 100 µM; in the assay with BT-549 breast it was 93.1 µM; in the assay on IGROV1 ovarian, over 100 µM; in the assay with EKVX NSCLC, over 100 µM; with HCT-116 colon it was over 100 µM. For the same molecule, the TGI with A549 NSCLC, in the assay with SK-MEL-28 melanoma, in the assay on OVCAR-4 ovarian and in the assay on CAKI-1 renal was over 100 µM throughout.

On to `COc1cc(CCCOC(=O)/C=C/c2ccc(O)c(O)c2)cc(O)c1O`, for which the TGI in the assay with COLO 205 colon was over 100 µM; in the assay on HOP-62 NSCLC, over 100 µM; in the assay on BT-549 breast, over 100 µM; in the assay with IGROV1 ovarian, over 100 µM; in the assay with EKVX NSCLC it was over 100 µM; in the assay with HCT-116 colon, 34.9 µM. Also, the TGI in the assay with A549 NSCLC, with SK-MEL-28 melanoma, in the assay with OVCAR-4 ovarian and in the assay on CAKI-1 renal was over 100 µM in each case.

For the molecule `O=C/C(=C(/Br)I)c1ccccc1`, the TGI with COLO 205 colon is 14.3 µM; in the assay with HOP-62 NSCLC, 29.8 µM; in the assay on BT-549 breast, 4.86 µM; with IGROV1 ovarian, 12.3 µM; with EKVX NSCLC, 28.6 µM; in the assay with HCT-116 colon, 4.52 µM. Besides, the TGI worked out at 56.2 µM in the assay with A549 NSCLC, 2.6 µM with SK-MEL-28 melanoma, 10.6 µM in the assay with OVCAR-4 ovarian and 4.15 µM in the assay on CAKI-1 renal.

As to `CC1=C2c3c(C)ccc4ccc(C)c(c34)C2(O)C(C)C1=O` (stereo not given), the TGI was 72.2 µM in the assay on COLO 205 colon; over 100 µM in the assay on HOP-62 NSCLC; 57.4 µM in the assay with BT-549 breast; over 100 µM in the assay on IGROV1 ovarian; over 100 µM in the assay on EKVX NSCLC; over 100 µM in the assay on HCT-116 colon. Besides, the TGI with A549 NSCLC, with SK-MEL-28 melanoma, in the assay on OVCAR-4 ovarian and in the assay on CAKI-1 renal was over 100 µM in each case.

For `CCCc1c(OC)c(=O)c2c(OC)cc(OC)c3c4c(OC)cc(OC)c5c(=O)c(OC)c(CCC)c(c1c23)c54`, the TGI in the assay with COLO 205 colon was determined as 27.2 µM; with HOP-62 NSCLC it was 33 µM; in the assay on BT-549 breast it was 31.4 µM; in the assay on IGROV1 ovarian, 34.8 µM; in the assay on EKVX NSCLC, 28 µM; in the assay with HCT-116 colon, 28 µM. Further, the TGI was 43.7 µM with A549 NSCLC, 26.2 µM with SK-MEL-28 melanoma, 28.4 µM with OVCAR-4 ovarian and 27.7 µM with CAKI-1 renal.

For `CN(C)CCNc1ccc2c(=O)n(CCN(C)C)c(=O)n3c4ccc([N+](=O)[O-])cc4c(=O)c1c23`, the TGI in the assay on COLO 205 colon was found to be 2.12 µM; in the assay on HOP-62 NSCLC it was 3.85 µM; in the assay on BT-549 breast it was 2.66 µM; in the assay with IGROV1 ovarian, 1.29 µM; with EKVX NSCLC, 2.83 µM; in the assay with HCT-116 colon it was 1.24 µM. For the same molecule, the TGI was 2.26 µM in the assay on A549 NSCLC, 2.66 µM in the assay with SK-MEL-28 melanoma, 2.8 µM with OVCAR-4 ovarian and 10.2 µM in the assay with CAKI-1 renal.

`Cc1cn(C2CCC(/C=N\O)O2)c(=O)[nH]c1=O` (stereo not given): the TGI in the assay with COLO 205 colon, in the assay with HOP-62 NSCLC, in the assay on BT-549 breast, in the assay with IGROV1 ovarian, in the assay with EKVX NSCLC and in the assay on HCT-116 colon was over 100 µM in each case. Further, the TGI in the assay with A549 NSCLC, in the assay on SK-MEL-28 melanoma, in the assay on OVCAR-4 ovarian and in the assay with CAKI-1 renal was over 100 µM each time.

With `CC1(c2nc3cc(Cl)c(Cl)cc3[nH]2)CCC(CO)C(C)(C)O1` (stereo not given), the TGI is 73.8 µM in the assay on COLO 205 colon; over 100 µM with HOP-62 NSCLC; 44.8 µM with BT-549 breast; 77.6 µM with IGROV1 ovarian; 87 µM in the assay on EKVX NSCLC; over 100 µM with HCT-116 colon. For the same molecule, the TGI with A549 NSCLC is over 100 µM; with SK-MEL-28 melanoma it was 92 µM; in the assay with OVCAR-4 ovarian, over 100 µM; in the assay on CAKI-1 renal it was over 100 µM.

For `CC(C)(C)N(Cc1ccc2c(c1)OCO2)C(=O)/C=C\S(=O)c1ccccc1` (stereo not given), the TGI in the assay with COLO 205 colon worked out at 8.75 µM; in the assay with HOP-62 NSCLC, 17.7 µM; with BT-549 breast, 10.3 µM; in the assay on IGROV1 ovarian, 13.3 µM; in the assay with EKVX NSCLC, 20.9 µM; in the assay with HCT-116 colon it was 7.84 µM. Moreover, the TGI in the assay on A549 NSCLC amounted to 18.4 µM; with SK-MEL-28 melanoma, 22.8 µM; in the assay on OVCAR-4 ovarian it was 10.7 µM; in the assay on CAKI-1 renal it was 15.1 µM.

For `CC1=C2C(=O)[C@H]3[C@@H](CC=C4C[C@@H](O)CC[C@@]43C)[C@@H]2CC[C@]12O[C@@H]1C[C@H](C)CN[C@H]1[C@H]2C`, the TGI with COLO 205 colon was over 100 µM; in the assay with HOP-62 NSCLC, over 55.2 µM; in the assay with BT-549 breast it was over 100 µM; with IGROV1 ovarian, over 96.4 µM; with EKVX NSCLC it was over 66.7 µM; in the assay on HCT-116 colon, over 68.5 µM. In addition, the TGI with A549 NSCLC was over 64.2 µM; in the assay on SK-MEL-28 melanoma, over 92.1 µM; in the assay on OVCAR-4 ovarian, over 64.5 µM; with CAKI-1 renal it was over 59.2 µM.

For `CC(C)(C)c1ccc(-c2nc3ccc([N+](=O)[O-])cc3c(=O)o2)cc1`, the TGI in the assay on COLO 205 colon is 71.9 µM; in the assay on HOP-62 NSCLC, 60.9 µM; in the assay with BT-549 breast it was 76.9 µM; with IGROV1 ovarian it was over 100 µM; in the assay with EKVX NSCLC, over 100 µM; with HCT-116 colon, 81.2 µM. In addition, the TGI with A549 NSCLC was over 100 µM; in the assay with SK-MEL-28 melanoma, 97.1 µM; with OVCAR-4 ovarian, 75.2 µM; in the assay with CAKI-1 renal, over 100 µM.

For `O=c1cc(N2CCOCC2)[nH]c(=O)n1-c1cccc(C(F)(F)F)c1`, the TGI in the assay on COLO 205 colon, in the assay with HOP-62 NSCLC, with BT-549 breast, in the assay on IGROV1 ovarian, with EKVX NSCLC and in the assay with HCT-116 colon was over 100 µM each time. In addition, the TGI with A549 NSCLC, in the assay on SK-MEL-28 melanoma, in the assay with OVCAR-4 ovarian and with CAKI-1 renal was over 100 µM each time.

With `Cc1ccc(S(=O)(=O)NN=C2CCCCCCCCCCC2)cc1`, the TGI in the assay with COLO 205 colon, in the assay with HOP-62 NSCLC, in the assay with BT-549 breast, in the assay on IGROV1 ovarian, in the assay with EKVX NSCLC and in the assay with HCT-116 colon was over 100 µM in each case. Besides, the TGI with A549 NSCLC, with SK-MEL-28 melanoma, in the assay with OVCAR-4 ovarian and in the assay on CAKI-1 renal was over 100 µM in each case.

As for `COc1ccc(-c2csc(=Nc3ccccc3)n2CC(O)c2ccc([N+](=O)[O-])cc2)cc1` (stereo not given), the TGI in the assay with COLO 205 colon, in the assay on HOP-62 NSCLC, with BT-549 breast, with IGROV1 ovarian, in the assay on EKVX NSCLC and in the assay with HCT-116 colon was over 100 µM each time. In addition, the TGI in the assay with A549 NSCLC, with SK-MEL-28 melanoma, in the assay with OVCAR-4 ovarian and with CAKI-1 renal was over 100 µM throughout.

For `O=C(O)C1CCCN1Cc1cc2ccccc2c2ccccc12` (stereo not given), the TGI with COLO 205 colon, in the assay on HOP-62 NSCLC, with BT-549 breast, in the assay with IGROV1 ovarian, in the assay on EKVX NSCLC and with HCT-116 colon was over 100 µM each time. The TGI with A549 NSCLC, in the assay on SK-MEL-28 melanoma, with OVCAR-4 ovarian and in the assay on CAKI-1 renal was over 100 µM each time.

Regarding `COc1ccc(N=C(C)c2ccncc2)cc1`, the TGI with COLO 205 colon, with HOP-62 NSCLC, in the assay on BT-549 breast, in the assay with IGROV1 ovarian, in the assay on EKVX NSCLC and in the assay on HCT-116 colon was over 100 µM in each case. Besides, the TGI in the assay with A549 NSCLC, in the assay on SK-MEL-28 melanoma, in the assay on OVCAR-4 ovarian and in the assay on CAKI-1 renal was over 100 µM throughout.

For `Cn1c(=O)cc(NCc2ccc(Cl)cc2)[nH]c1=O`, the TGI in the assay on COLO 205 colon is over 100 µM; in the assay on HOP-62 NSCLC, 77.4 µM; in the assay with BT-549 breast, over 100 µM; in the assay with IGROV1 ovarian, over 100 µM; in the assay on EKVX NSCLC it was over 100 µM; in the assay with HCT-116 colon, over 100 µM. Further, the TGI in the assay with A549 NSCLC, in the assay on SK-MEL-28 melanoma, in the assay on OVCAR-4 ovarian and in the assay with CAKI-1 renal was over 100 µM each time.
